Where a SMILES comes first, the peptide text is derived from it.
Target: HLA-A03.01 (Homo sapiens, UniProt P04439)
Assay: Class I MHC peptide binding affinity (displacement of radiolabeled reference peptide)
Details: allele A03.01; read-out: Observed Affinity (IC50; (nM))
Protocol: In brief, MHCI complexes were prepared and bound to radiolabeled reference peptides. Peptides were incubated at varying concentrations with these complexes for 2 days, and the amount of remaining radiolabeled peptide bound to WWI was measured using size exclusion gel-filtration.

HLA-A03.01, sequence (P04439 25-365): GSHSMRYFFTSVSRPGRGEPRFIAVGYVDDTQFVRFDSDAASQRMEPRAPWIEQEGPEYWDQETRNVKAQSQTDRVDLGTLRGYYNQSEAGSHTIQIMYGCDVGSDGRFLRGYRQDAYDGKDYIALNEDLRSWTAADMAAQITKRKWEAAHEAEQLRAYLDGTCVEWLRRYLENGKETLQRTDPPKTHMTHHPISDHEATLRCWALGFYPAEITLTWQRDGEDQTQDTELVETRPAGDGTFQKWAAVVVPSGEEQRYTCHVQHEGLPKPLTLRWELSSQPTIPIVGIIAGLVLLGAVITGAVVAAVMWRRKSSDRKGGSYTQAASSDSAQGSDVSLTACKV
HLA-A03.01, sequence (P61769 21-119 partner): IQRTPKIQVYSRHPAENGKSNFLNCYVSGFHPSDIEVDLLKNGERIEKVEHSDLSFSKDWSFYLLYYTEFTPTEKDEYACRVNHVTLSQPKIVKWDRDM

| Compound | IC50 [nM] |
| --- | --- |
| CC[C@H](C)[C@H](NC(=O)[C@H](C)NC(=O)[C@H](CS)NC(=O)[C@@H](NC(=O)[C@@H](N)Cc1ccc(O)cc1)[C@@H](C)O)C(=O)N[C@H](C(=O)N[C@H](C(=O)N[C@H](C(=O)N[C@@H](CCCCN)C(=O)O)C(C)C)[C@@H](C)O)[C@@H](C)O | 122 |
| CC[C@H](C)[C@H](NC(=O)[C@H](C)N)C(=O)N[C@@H](CO)C(=O)N[C@H](C(=O)N[C@@H](CCCNC(=N)N)C(=O)N[C@@H](CC(=O)O)C(=O)N1CCC[C@H]1C(=O)N[C@@H](CC(C)C)C(=O)N[C@@H](CO)C(=O)N[C@@H](CCCCN)C(=O)O)[C@@H](C)O (H-AISTRDPLSK-OH; N-terminus and C-terminus assumed) | 57.5 |
| CC(C)C[C@H](NC(=O)[C@H](C)N)C(=O)N[C@@H](Cc1ccccc1)C(=O)N[C@@H](Cc1ccccc1)C(=O)N[C@@H](Cc1ccccc1)C(=O)N[C@@H](Cc1ccccc1)C(=O)N[C@@H](Cc1ccccc1)C(=O)N[C@@H](CCC(=O)O)C(=O)N[C@H](C(=O)N[C@@H](CCCCN)C(=O)O)[C@@H](C)O (H-ALFFFFFETK-OH; N-terminus and C-terminus assumed) | 216 |
| CSCC[C@H](NC(=O)[C@H](C)N)C(=O)N[C@H](C(=O)N[C@H](C(=O)N[C@@H](CO)C(=O)N[C@@H](CO)C(=O)N[C@@H](CO)C(=O)N[C@@H](CCC(N)=O)C(=O)N[C@@H](CCCCN)C(=O)N[C@@H](CC(N)=O)C(=O)O)[C@@H](C)O)[C@@H](C)O (H-AMTTSSSQKN-OH; N-terminus and C-terminus assumed) | 2340 |
| CC(C)C[C@H](NC(=O)[C@@H](NC(=O)[C@@H](NC(=O)[C@@H](N)CS)[C@@H](C)O)[C@@H](C)O)C(=O)N[C@@H](CC(N)=O)C(=O)N[C@@H](CO)C(=O)N1CCC[C@H]1C(=O)N1CCC[C@H]1C(=O)N[C@@H](CC(C)C)C(=O)N[C@@H](CCCCN)C(=O)O (H-CTTLNSPPLK-OH; N-terminus and C-terminus assumed) | 63.6 |
| CC[C@H](C)[C@H](NC(=O)[C@H](Cc1c[nH]c2ccccc12)NC(=O)[C@H](CS)NC(=O)[C@H](Cc1ccccc1)NC(=O)[C@H](Cc1ccccc1)NC(=O)[C@@H](N)Cc1ccccc1)C(=O)N[C@@H](CC(C)C)C(=O)N[C@@H](CO)C(=O)N[C@@H](CS)C(=O)N[C@@H](CCCCN)C(=O)O (H-FFFCWILSCK-OH; N-terminus and C-terminus assumed) | 597 |
| CSCC[C@H](NC(=O)[C@@H](NC(=O)[C@@H](N)Cc1ccccc1)C(C)C)C(=O)N[C@@H](CO)C(=O)N[C@@H](CC(=O)O)C(=O)N[C@H](C(=O)N[C@H](C(=O)N[C@@H](Cc1ccc(O)cc1)C(=O)N[C@@H](CCCCN)C(=O)O)[C@@H](C)O)[C@@H](C)O (H-FVMSDTTYK-OH; N-terminus and C-terminus assumed) | 66.9 |
| CC(C)C[C@H](NC(=O)[C@H](CCC(N)=O)NC(=O)[C@H](CC(C)C)NC(=O)[C@@H](N)Cc1c[nH]cn1)C(=O)N[C@@H](CCCCN)C(=O)N[C@@H](CO)C(=O)N[C@@H](CS)C(=O)N[C@@H](CCCNC(=N)N)C(=O)N[C@@H](CCCNC(=N)N)C(=O)N[C@@H](CCCCN)C(=O)O (H-HLQLKSCRRK-OH; N-terminus and C-terminus assumed) | 96.9 |
| CC[C@H](C)[C@H](N)C(=O)N[C@H](C(=O)N[C@H](C(=O)N[C@H](C(=O)N[C@@H](CCCCN)C(=O)N[C@@H](C)C(=O)N[C@H](C(=O)N[C@@H](CCC(=O)O)C(=O)N[C@H](C(=O)N[C@@H](CCCCN)C(=O)O)[C@@H](C)O)[C@@H](C)O)C(C)C)[C@@H](C)O)[C@@H](C)O (H-ITTVKATETK-OH; N-terminus and C-terminus assumed) | 1250 |
| CC[C@H](C)[C@H](NC(=O)[C@@H](N)CCCCN)C(=O)N[C@@H](CO)C(=O)N[C@@H](CC(N)=O)C(=O)N[C@@H](Cc1c[nH]c2ccccc12)C(=O)N[C@@H](CO)C(=O)N[C@@H](CC(C)C)C(=O)N[C@@H](CCCCN)C(=O)N[C@@H](CCCCN)C(=O)N[C@H](C(=O)O)C(C)C (H-KISNWSLKKV-OH; N-terminus and C-terminus assumed) | 115 |
| CSCC[C@H](NC(=O)[C@H](CC(C)C)NC(=O)[C@@H](N)CCCCN)C(=O)N[C@@H](CC(C)C)C(=O)N[C@@H](CC(C)C)C(=O)N[C@@H](CCCNC(=N)N)C(=O)N[C@@H](CC(C)C)C(=O)N[C@@H](CC(N)=O)C(=O)N[C@@H](CC(C)C)C(=O)N[C@@H](CCCNC(=N)N)C(=O)O (H-KLMLLRLNLR-OH; N-terminus and C-terminus assumed) | 48.4 |
| CSCC[C@H](NC(=O)[C@@H](N)CCCCN)C(=O)N[C@@H](CCCNC(=N)N)C(=O)N[C@@H](CCCCN)C(=O)N[C@@H](CCCCN)C(=O)N[C@@H](Cc1ccc(O)cc1)C(=O)N[C@@H](C)C(=O)N[C@@H](CCC(N)=O)C(=O)N[C@@H](CCCCN)C(=O)O (H-KMRKKYAQK-OH; N-terminus and C-terminus assumed) | 5.7 |
| CC(C)[C@H](NC(=O)[C@H](CCCNC(=N)N)NC(=O)[C@@H](N)CCCCN)C(=O)N[C@@H](CC(N)=O)C(=O)N[C@H](C(=O)N[C@@H](C)C(=O)N[C@@H](Cc1c[nH]c2ccccc12)C(=O)N[C@@H](CCCCN)C(=O)N[C@H](C(=O)N[C@@H](CCCCN)C(=O)O)[C@@H](C)O)[C@@H](C)O (H-KRVNTAWKTK-OH; N-terminus and C-terminus assumed) | 332 |
| C[C@@H](O)[C@H](NC(=O)[C@H](CCC(=O)O)NC(=O)[C@H](CCCCN)NC(=O)[C@H](CCCCN)NC(=O)[C@H](CCCCN)NC(=O)[C@H](CO)NC(=O)[C@@H](N)CCCCN)C(=O)N[C@@H](Cc1ccccc1)C(=O)N[C@@H](CCCCN)C(=O)O (H-KSKKKETFK-OH; N-terminus and C-terminus assumed) | 74.3 |
| C[C@@H](O)[C@H](NC(=O)[C@H](CCC(=O)O)NC(=O)[C@H](CCCCN)NC(=O)[C@H](CCCCN)NC(=O)[C@H](CCCCN)NC(=O)[C@H](CO)NC(=O)[C@@H](N)CCCCN)C(=O)N[C@@H](Cc1ccccc1)C(=O)N[C@@H](CCCCN)C(=O)N[C@@H](CCCCN)C(=O)O (H-KSKKKETFKK-OH; N-terminus and C-terminus assumed) | 39.6 |
| CC(C)C[C@H](NC(=O)[C@H](CCC(N)=O)NC(=O)[C@H](CC(C)C)NC(=O)[C@H](Cc1c[nH]cn1)NC(=O)[C@H](CC(N)=O)NC(=O)[C@H](CCC(N)=O)NC(=O)[C@H](CCCNC(=N)N)NC(=O)[C@H](CO)NC(=O)[C@@H](N)CCCCN)C(=O)N[C@@H](CCCCN)C(=O)O (H-KSRQNHLQLK-OH; N-terminus and C-terminus assumed) | 4.7 |
| C[C@@H](O)[C@H](NC(=O)[C@@H](N)CCCCN)C(=O)N[C@@H](Cc1ccccc1)C(=O)N[C@@H](CCC(=O)O)C(=O)N[C@@H](CCCCN)C(=O)N[C@@H](CCCCN)C(=O)NCC(=O)N[C@@H](CCC(=O)O)C(=O)N[C@@H](CCCCN)C(=O)O (H-KTFEKKGEK-OH; N-terminus and C-terminus assumed) | 32.2 |
| CC(C)C[C@H](N)C(=O)N[C@@H](Cc1ccccc1)C(=O)N[C@@H](Cc1ccccc1)C(=O)N[C@@H](Cc1ccccc1)C(=O)N[C@@H](Cc1ccccc1)C(=O)N[C@@H](Cc1ccccc1)C(=O)N[C@@H](CCC(=O)O)C(=O)N[C@H](C(=O)N[C@@H](CCCCN)C(=O)O)[C@@H](C)O (H-LFFFFFETK-OH; N-terminus and C-terminus assumed) | 413 |
| CSCC[C@H](NC(=O)[C@@H](NC(=O)[C@H](Cc1ccccc1)NC(=O)[C@@H](N)CC(C)C)C(C)C)C(=O)N[C@@H](CO)C(=O)N[C@@H](CC(=O)O)C(=O)N[C@H](C(=O)N[C@H](C(=O)N[C@@H](Cc1ccc(O)cc1)C(=O)N[C@@H](CCCCN)C(=O)O)[C@@H](C)O)[C@@H](C)O (H-LFVMSDTTYK-OH; N-terminus and C-terminus assumed) | 749 |
| CC(C)C[C@H](NC(=O)[C@@H](N)CC(C)C)C(=O)N[C@H](C(=O)N[C@@H](CO)C(=O)N[C@@H](CO)C(=O)N[C@@H](CO)C(=O)N[C@@H](CCCNC(=N)N)C(=O)N[C@@H](CCC(=O)O)C(=O)N[C@@H](Cc1c[nH]c2ccccc12)C(=O)N[C@@H](CCCCN)C(=O)O)[C@@H](C)O (H-LLTSSSREWK-OH; N-terminus and C-terminus assumed) | 1770 |
| CSCC[C@H](NC(=O)[C@@H](N)CC(C)C)C(=O)N[C@@H](CC(C)C)C(=O)N[C@@H](CC(C)C)C(=O)N[C@@H](CCCNC(=N)N)C(=O)N[C@@H](CC(C)C)C(=O)N[C@@H](CC(N)=O)C(=O)N[C@@H](CC(C)C)C(=O)N[C@@H](CCCNC(=N)N)C(=O)N[C@@H](CCCCN)C(=O)O (H-LMLLRLNLRK-OH; N-terminus and C-terminus assumed) | 6 |
| CC(C)C[C@H](NC(=O)[C@H](Cc1ccccc1)NC(=O)[C@H](CO)NC(=O)[C@@H](N)CC(C)C)C(=O)N[C@@H](CO)C(=O)N[C@@H](CO)C(=O)N[C@@H](Cc1c[nH]c2ccccc12)C(=O)N[C@@H](CC(=O)O)C(=O)N[C@@H](Cc1ccc(O)cc1)C(=O)N[C@@H](CCCNC(=N)N)C(=O)O (H-LSFLSSWDYR-OH; N-terminus and C-terminus assumed) | 101 |
| CC(C)C[C@H](N)C(=O)N[C@H](C(=O)N[C@@H](CO)C(=O)N[C@@H](CO)C(=O)N[C@@H](CO)C(=O)N[C@@H](CCCNC(=N)N)C(=O)N[C@@H](CCC(=O)O)C(=O)N[C@@H](Cc1c[nH]c2ccccc12)C(=O)N[C@@H](CCCCN)C(=O)O)[C@@H](C)O (H-LTSSSREWK-OH; N-terminus and C-terminus assumed) | 118 |
| CSCC[C@H](N)C(=O)N[C@@H](CC(C)C)C(=O)N[C@@H](CC(C)C)C(=O)N[C@@H](CCCNC(=N)N)C(=O)N[C@@H](CC(C)C)C(=O)N[C@@H](CC(N)=O)C(=O)N[C@@H](CC(C)C)C(=O)N[C@@H](CCCNC(=N)N)C(=O)N[C@@H](CCCCN)C(=O)O (H-MLLRLNLRK-OH; N-terminus and C-terminus assumed) | 1.3 |
| CC[C@H](C)[C@H](NC(=O)[C@H](CCCCN)NC(=O)[C@@H](N)CCCNC(=N)N)C(=O)N[C@@H](CO)C(=O)N[C@@H](CC(N)=O)C(=O)N[C@@H](Cc1c[nH]c2ccccc12)C(=O)N[C@@H](CO)C(=O)N[C@@H](CC(C)C)C(=O)N[C@@H](CCCCN)C(=O)N[C@@H](CCCCN)C(=O)O (H-RKISNWSLKK-OH; N-terminus and C-terminus assumed) | 131 |
| CSCC[C@H](NC(=O)[C@H](CC(C)C)NC(=O)[C@@H]1CCCN1C(=O)[C@@H](NC(=O)[C@H](CCCCN)NC(=O)[C@H](CCSC)NC(=O)[C@@H](N)CCCNC(=N)N)C(C)C)C(=O)N[C@@H](CCCCN)C(=O)O (H-RMKVPLMK-OH; N-terminus and C-terminus assumed) | 33 |

Reference: patent publication US20220282217A1, “COMPOSITIONS AND METHODS FOR PREPARING T CELL COMPOSITIONS AND USES THEREOF” (priority 2019, published 2022)
